Literature values in PMC3711574 (Biochemistry, 2012).

Tested on: BHRF-1
Conditions: ref [67]

MRPEIWIAQELRRIGDEFNAYYARRV [Bim]
Binding to BHRF-1: binds
